Laboratory results taken from publication PMC4490784, “Compensatory induction of MYC expression by sustained CDK9 inhibition via a BRD4-dependent mechanism” (eLife, 2015).

Tests used:
Test in all cases: KINOMEscan binding assay
[1] = target: T1, CDKL2 (Homo sapiens, UniProt Q92772); conditions: read-out: % Retention on Solid Support
T1 construct: purchased DiscoveRx KINOMEscan
How it was run: (§1)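 Two inhibitor concentrations (1 and 10 µM) were run. Binding to each kinase was assessed by competition with an active site-directed probe, covering upwards of 400 kinases.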

[2] = target: T2, HIPK4 (Homo sapiens, UniProt Q8NE63); conditions: read-out: % Retention on Solid Support
T2 construct: purchased DiscoveRx KINOMEscan
T2 sequence (Q8NE63 whole entry): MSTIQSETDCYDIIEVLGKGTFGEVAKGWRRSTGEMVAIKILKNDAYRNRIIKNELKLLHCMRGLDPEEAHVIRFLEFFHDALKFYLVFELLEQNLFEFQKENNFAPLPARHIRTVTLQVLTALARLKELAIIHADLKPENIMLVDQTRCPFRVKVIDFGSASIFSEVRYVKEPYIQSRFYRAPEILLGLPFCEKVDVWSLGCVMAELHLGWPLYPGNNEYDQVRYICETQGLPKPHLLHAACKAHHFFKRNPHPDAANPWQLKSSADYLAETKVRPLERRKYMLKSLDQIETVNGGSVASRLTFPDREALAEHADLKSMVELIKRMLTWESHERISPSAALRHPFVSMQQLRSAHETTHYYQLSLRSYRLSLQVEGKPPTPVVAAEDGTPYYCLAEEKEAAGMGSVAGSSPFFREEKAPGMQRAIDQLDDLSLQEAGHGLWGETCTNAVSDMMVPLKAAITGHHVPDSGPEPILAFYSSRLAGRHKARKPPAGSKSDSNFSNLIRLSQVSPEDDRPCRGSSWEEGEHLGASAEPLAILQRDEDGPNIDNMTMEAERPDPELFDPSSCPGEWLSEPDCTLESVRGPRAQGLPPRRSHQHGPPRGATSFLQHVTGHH
How it was run: as §1

[3] = target: T3, TRPM6 (Homo sapiens, UniProt Q9BX84); conditions: 1 µM i-CDK9; read-out: % Retention on Solid Support
T3 construct: purchased DiscoveRx KINOMEscan
How it was run: as §1

[4] = target: T4, MARK2 (Homo sapiens, UniProt Q7KZI7); conditions: read-out: % Retention on Solid Support
T4 construct: purchased DiscoveRx KINOMEscan
T4 sequence (Q7KZI7 whole entry): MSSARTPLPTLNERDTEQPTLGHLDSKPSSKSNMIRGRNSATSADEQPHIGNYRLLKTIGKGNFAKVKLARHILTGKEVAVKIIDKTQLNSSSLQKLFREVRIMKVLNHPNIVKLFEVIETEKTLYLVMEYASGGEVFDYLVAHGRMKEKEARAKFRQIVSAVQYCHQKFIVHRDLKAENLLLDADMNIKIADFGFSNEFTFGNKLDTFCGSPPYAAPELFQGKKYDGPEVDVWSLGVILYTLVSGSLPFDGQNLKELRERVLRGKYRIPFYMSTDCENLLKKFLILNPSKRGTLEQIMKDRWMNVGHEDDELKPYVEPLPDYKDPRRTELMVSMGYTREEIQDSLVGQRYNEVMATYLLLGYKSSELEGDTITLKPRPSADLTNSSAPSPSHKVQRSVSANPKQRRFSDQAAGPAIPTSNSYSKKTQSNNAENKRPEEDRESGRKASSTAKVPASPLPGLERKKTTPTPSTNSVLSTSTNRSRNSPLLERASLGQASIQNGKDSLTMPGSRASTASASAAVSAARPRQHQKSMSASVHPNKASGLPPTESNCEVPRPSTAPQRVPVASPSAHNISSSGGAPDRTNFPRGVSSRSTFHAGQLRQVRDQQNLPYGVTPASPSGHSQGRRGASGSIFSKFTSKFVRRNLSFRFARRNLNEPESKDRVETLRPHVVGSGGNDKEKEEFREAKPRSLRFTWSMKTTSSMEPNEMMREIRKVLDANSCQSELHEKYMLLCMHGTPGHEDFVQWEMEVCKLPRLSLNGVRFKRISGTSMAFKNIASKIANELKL
How it was run: as §1

[5] = target: T5, IRAK1 (Homo sapiens, UniProt P51617); conditions: read-out: % Retention on Solid Support
T5 construct: purchased DiscoveRx KINOMEscan
T5 sequence (P51617 whole entry): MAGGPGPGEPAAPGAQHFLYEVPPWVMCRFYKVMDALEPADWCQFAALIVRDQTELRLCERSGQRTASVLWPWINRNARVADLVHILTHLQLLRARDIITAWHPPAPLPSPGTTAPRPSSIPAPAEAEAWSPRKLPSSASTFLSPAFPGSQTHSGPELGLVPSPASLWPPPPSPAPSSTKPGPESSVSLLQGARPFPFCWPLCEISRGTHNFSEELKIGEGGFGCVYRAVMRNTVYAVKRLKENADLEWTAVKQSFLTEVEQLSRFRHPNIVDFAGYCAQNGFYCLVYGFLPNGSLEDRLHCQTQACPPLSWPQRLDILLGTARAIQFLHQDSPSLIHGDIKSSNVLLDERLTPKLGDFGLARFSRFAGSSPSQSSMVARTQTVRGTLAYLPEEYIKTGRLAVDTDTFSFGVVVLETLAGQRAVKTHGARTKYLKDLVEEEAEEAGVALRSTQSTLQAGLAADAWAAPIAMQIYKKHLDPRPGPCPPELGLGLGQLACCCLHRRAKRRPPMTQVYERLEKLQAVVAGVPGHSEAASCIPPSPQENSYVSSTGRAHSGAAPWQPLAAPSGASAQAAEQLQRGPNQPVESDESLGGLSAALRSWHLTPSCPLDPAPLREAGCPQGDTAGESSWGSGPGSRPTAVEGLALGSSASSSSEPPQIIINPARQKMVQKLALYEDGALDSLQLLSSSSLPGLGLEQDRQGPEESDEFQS
How it was run: as §1

[6] = target: T6, ROS1 (Homo sapiens, UniProt P08922); conditions: read-out: % Retention on Solid Support
T6 construct: purchased DiscoveRx KINOMEscan
How it was run: as §1

[7] = target: T7, MAP3K4 (Homo sapiens, UniProt Q9Y6R4); conditions: read-out: % Retention on Solid Support
T7 construct: purchased DiscoveRx KINOMEscan
How it was run: as §1

[8] = target: T8, PIP5K1C (Homo sapiens, UniProt O60331); conditions: 1 µM i-CDK9
T8 construct: purchased DiscoveRx KINOMEscan
How it was run: as §1

[9] = target: T9, ROCK2 (Homo sapiens, UniProt O75116); conditions: read-out: % Retention on Solid Support
T9 construct: purchased DiscoveRx KINOMEscan
How it was run: as §1

[10] = target: T10, GAK (Homo sapiens, UniProt O14976); conditions: read-out: % Retention on Solid Support
T10 construct: purchased DiscoveRx KINOMEscan
How it was run: as §1

[11] = target: T11, NEK6 (Homo sapiens, UniProt Q9HC98); conditions: read-out: % Retention on Solid Support
T11 construct: purchased DiscoveRx KINOMEscan
How it was run: as §1

[12] = target: T12, FGFR3 (Homo sapiens, UniProt P22607); conditions: read-out: % Retention on Solid Support
T12 construct: purchased DiscoveRx KINOMEscan
How it was run: as §1

[13] = target: T13, SYK (Homo sapiens, UniProt P43405)
T13 construct: purchased DiscoveRx KINOMEscan
How it was run: as §1

[14] = target: T14, CAMK2G (Homo sapiens, UniProt Q13555); conditions: read-out: % Retention on Solid Support
T14 construct: purchased DiscoveRx KINOMEscan
How it was run: as §1

[15] = target: T15, PIK3CA(Q546K) (Homo sapiens, UniProt P42336, Q546K); conditions: read-out: % Retention on Solid Support
T15 construct: purchased DiscoveRx KINOMEscan
How it was run: as §1

[16] = target: T16, PAK1 (Homo sapiens, UniProt Q13153); conditions: read-out: % Retention on Solid Support
T16 construct: purchased DiscoveRx KINOMEscan
T16 sequence (Q13153 whole entry): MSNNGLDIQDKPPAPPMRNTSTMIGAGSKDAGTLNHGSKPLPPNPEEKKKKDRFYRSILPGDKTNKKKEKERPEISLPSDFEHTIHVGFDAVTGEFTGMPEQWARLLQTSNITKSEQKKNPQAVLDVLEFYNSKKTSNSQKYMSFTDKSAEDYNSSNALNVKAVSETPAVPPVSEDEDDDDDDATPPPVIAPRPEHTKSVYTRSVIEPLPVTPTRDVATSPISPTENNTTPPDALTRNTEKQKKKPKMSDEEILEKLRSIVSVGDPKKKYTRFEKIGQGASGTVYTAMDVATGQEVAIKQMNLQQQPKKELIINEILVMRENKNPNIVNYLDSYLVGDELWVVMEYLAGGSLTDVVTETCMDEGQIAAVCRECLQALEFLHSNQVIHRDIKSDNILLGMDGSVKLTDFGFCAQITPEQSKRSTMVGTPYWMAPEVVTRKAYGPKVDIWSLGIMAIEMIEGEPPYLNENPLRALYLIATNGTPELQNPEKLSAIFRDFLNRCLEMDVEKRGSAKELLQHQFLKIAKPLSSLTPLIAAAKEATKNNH
How it was run: as §1

[17] = target: T17, CSNK1E (Homo sapiens, UniProt P49674); conditions: read-out: % Retention on Solid Support
T17 construct: purchased DiscoveRx KINOMEscan
T17 sequence (P49674 whole entry): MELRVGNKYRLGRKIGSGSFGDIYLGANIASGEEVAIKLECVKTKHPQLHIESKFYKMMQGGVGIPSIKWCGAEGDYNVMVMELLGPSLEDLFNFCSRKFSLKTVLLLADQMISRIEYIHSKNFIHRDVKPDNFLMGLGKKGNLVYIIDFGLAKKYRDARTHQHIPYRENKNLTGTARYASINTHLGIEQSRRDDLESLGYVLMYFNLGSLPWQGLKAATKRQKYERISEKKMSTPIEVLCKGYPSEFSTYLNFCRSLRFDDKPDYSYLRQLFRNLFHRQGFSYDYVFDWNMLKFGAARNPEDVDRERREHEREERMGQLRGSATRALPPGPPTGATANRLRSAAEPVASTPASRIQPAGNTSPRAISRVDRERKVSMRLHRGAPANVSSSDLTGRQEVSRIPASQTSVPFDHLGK
How it was run: as §1

[18] = target: T18, RPS6KA4(Kin.Dom.1-N-terminal) (Homo sapiens, UniProt O75676); conditions: read-out: % Retention on Solid Support
T18 construct: RPS6KA4(Kin.Dom.1-N-terminal); purchased DiscoveRx KINOMEscan
How it was run: as §1

[19] = target: T19, AAK1 (Homo sapiens, UniProt Q2M2I8); conditions: read-out: % Retention on Solid Support
T19 construct: purchased DiscoveRx KINOMEscan
T19 sequence (Q2M2I8 whole entry): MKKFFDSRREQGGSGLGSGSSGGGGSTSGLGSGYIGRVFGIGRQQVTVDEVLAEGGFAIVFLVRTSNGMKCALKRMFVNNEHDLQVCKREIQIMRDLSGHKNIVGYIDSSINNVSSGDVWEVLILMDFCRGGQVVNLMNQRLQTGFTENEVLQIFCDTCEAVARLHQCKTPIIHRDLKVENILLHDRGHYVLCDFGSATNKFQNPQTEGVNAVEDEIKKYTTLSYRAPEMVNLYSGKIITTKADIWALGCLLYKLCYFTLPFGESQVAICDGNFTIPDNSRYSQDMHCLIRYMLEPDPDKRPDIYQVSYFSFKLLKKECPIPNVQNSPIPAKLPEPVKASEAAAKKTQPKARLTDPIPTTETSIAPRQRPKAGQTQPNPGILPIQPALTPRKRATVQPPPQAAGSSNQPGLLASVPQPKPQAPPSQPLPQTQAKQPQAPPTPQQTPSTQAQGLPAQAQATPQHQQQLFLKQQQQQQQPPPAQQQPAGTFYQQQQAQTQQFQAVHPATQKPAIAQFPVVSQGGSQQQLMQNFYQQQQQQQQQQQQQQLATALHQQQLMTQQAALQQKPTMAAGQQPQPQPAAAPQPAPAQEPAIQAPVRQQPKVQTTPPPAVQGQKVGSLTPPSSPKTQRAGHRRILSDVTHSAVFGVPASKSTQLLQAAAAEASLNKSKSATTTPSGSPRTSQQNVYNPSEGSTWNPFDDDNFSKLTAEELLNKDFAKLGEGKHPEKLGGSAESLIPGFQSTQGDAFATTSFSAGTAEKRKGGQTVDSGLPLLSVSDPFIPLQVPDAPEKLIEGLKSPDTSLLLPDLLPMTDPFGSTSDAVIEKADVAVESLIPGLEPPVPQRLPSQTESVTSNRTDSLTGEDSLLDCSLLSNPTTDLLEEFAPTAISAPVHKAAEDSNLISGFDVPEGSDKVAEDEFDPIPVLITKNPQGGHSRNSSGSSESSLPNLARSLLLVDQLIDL
How it was run: as §1

[20] = target: T20, EPHA5 (Homo sapiens, UniProt P54756)
T20 construct: purchased DiscoveRx KINOMEscan
How it was run: as §1

[21] = target: T21, ACVR1B (Homo sapiens, UniProt P36896); conditions: read-out: % Retention on Solid Support
T21 construct: purchased DiscoveRx KINOMEscan
How it was run: as §1

[22] = target: T22, FGFR4 (Homo sapiens, UniProt P22455); conditions: read-out: % Retention on Solid Support
T22 construct: purchased DiscoveRx KINOMEscan
How it was run: as §1

[23] = target: T23, p38-delta (Homo sapiens, UniProt O15264); conditions: read-out: % Retention on Solid Support
T23 construct: purchased DiscoveRx KINOMEscan
T23 sequence (O15264 whole entry): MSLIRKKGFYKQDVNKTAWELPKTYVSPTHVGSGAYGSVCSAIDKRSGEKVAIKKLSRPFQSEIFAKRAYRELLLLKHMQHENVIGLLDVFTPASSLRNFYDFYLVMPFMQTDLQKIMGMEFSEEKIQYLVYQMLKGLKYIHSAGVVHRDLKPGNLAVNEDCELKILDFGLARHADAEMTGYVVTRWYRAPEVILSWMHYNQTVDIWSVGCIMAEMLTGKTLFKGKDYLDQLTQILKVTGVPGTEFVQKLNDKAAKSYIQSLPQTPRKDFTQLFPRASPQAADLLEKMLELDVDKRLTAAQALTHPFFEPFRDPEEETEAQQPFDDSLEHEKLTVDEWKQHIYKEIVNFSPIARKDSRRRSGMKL
How it was run: as §1

[24] = target: T24, EGFR (Homo sapiens, UniProt P00533)
T24 construct: purchased DiscoveRx KINOMEscan
How it was run: as §1

[25] = target: T25, CDKL3 (Homo sapiens, UniProt Q8IVW4); conditions: read-out: % Retention on Solid Support
T25 construct: purchased DiscoveRx KINOMEscan
How it was run: as §1

[26] = target: T26, PKN1 (Homo sapiens, UniProt Q16512); conditions: read-out: % Retention on Solid Support
T26 construct: purchased DiscoveRx KINOMEscan
How it was run: as §1

[27] = target: T27, PIM1 (Homo sapiens, UniProt P11309); conditions: read-out: % Retention on Solid Support
T27 construct: purchased DiscoveRx KINOMEscan
How it was run: as §1

[28] = target: T28, LKB1 (Homo sapiens, UniProt Q15831); conditions: read-out: % Retention on Solid Support
T28 construct: purchased DiscoveRx KINOMEscan
How it was run: as §1

[29] = target: T29, DMPK (Homo sapiens, UniProt Q09013); conditions: read-out: % Retention on Solid Support
T29 construct: purchased DiscoveRx KINOMEscan
How it was run: as §1

[30] = target: DYRK1A (Homo sapiens, UniProt Q13627); conditions: read-out: % Retention on Solid Support
How it was run: as §1

T1 sequence (Q92772 whole entry): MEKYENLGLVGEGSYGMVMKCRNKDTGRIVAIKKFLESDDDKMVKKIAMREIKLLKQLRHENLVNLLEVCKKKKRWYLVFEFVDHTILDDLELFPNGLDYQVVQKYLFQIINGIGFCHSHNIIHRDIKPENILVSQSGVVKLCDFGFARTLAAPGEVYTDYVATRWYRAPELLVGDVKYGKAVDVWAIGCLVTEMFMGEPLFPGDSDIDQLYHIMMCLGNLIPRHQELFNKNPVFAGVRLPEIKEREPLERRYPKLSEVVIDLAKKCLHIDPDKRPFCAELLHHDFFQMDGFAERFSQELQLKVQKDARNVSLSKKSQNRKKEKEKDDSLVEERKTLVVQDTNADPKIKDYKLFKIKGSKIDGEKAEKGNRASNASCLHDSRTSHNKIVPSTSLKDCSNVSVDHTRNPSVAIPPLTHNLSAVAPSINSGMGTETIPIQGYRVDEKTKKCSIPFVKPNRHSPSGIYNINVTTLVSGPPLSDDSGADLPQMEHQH

Question: Which results are given for `N[C@H]1CC[C@H](Nc2cc(-c3cccc(NCc4cccc(F)c4)n3)c(Cl)cn2)CC1` [i-CDK9, N2′-(trans-4-aminocyclohexyl)-5′-chloro-N6-(3-fluorobenzyl)-2,4′-bipyridine-2′,6-diamine]?
Answer: remaining binding at 1 µM ([1]; 1 µM i-CDK9): 80%; remaining binding at 10 µM ([1]; 10 µM i-CDK9): 14%; remaining binding at 1 µM ([2]; 1 µM i-CDK9): 40%; remaining binding at 10 µM ([2]; 10 µM i-CDK9): 3.2%; remaining binding at 1 µM [3]: 92%; remaining binding at 1 µM ([4]; 1 µM i-CDK9): 76%; remaining binding at 10 µM ([4]; 10 µM i-CDK9): 86%; remaining binding at 1 µM ([5]; 1 µM i-CDK9): 100%; remaining binding at 10 µM ([5]; 10 µM i-CDK9): 73%; remaining binding at 1 µM ([6]; 1 µM i-CDK9): 98%; remaining binding at 10 µM ([6]; 10 µM i-CDK9): 100%; remaining binding at 1 µM ([7]; 1 µM i-CDK9): 87%; remaining binding at 10 µM ([7]; 10 µM i-CDK9): 96%; % Retention on Solid Support [8]: 85%; remaining binding at 1 µM ([9]; 1 µM i-CDK9): 100%; remaining binding at 10 µM ([9]; 10 µM i-CDK9): 90%; remaining binding at 1 µM ([10]; 1 µM i-CDK9): 100%; remaining binding at 10 µM ([10]; 10 µM i-CDK9): 89%; remaining binding at 1 µM ([11]; 1 µM i-CDK9): 70%; remaining binding at 10 µM ([11]; 10 µM i-CDK9): 100%; remaining binding at 1 µM ([12]; 1 µM i-CDK9): 100%; remaining binding at 10 µM ([12]; 10 µM i-CDK9): 95%; % Retention on Solid Support ([13]; 1 µM i-CDK9): 86%; % Retention on Solid Support ([13]; 10 µM i-CDK9): 100%; remaining binding at 1 µM ([14]; 1 µM i-CDK9): 100%; remaining binding at 10 µM ([14]; 10 µM i-CDK9): 100%; remaining binding at 1 µM ([15]; 1 µM i-CDK9): 73%; remaining binding at 10 µM ([15]; 10 µM i-CDK9): 100%; remaining binding at 1 µM ([16]; 1 µM i-CDK9): 100%; remaining binding at 10 µM ([16]; 10 µM i-CDK9): 100%; remaining binding at 1 µM ([17]; 1 µM i-CDK9): 100%; remaining binding at 10 µM ([17]; 10 µM i-CDK9): 45%; remaining binding at 1 µM ([18]; 1 µM i-CDK9): 48%; remaining binding at 10 µM ([18]; 10 µM i-CDK9): 84%; remaining binding at 1 µM ([19]; 1 µM i-CDK9): 100%; remaining binding at 10 µM ([19]; 10 µM i-CDK9): 100%; % Retention on Solid Support ([20]; 1 µM i-CDK9): 96%; % Retention on Solid Support ([20]; 10 µM i-CDK9): 100%; remaining binding at 1 µM ([21]; 1 µM i-CDK9): 69%; remaining binding at 10 µM ([21]; 10 µM i-CDK9): 100%; remaining binding at 1 µM ([22]; 1 µM i-CDK9): 98%; remaining binding at 10 µM ([22]; 10 µM i-CDK9): 100%; remaining binding at 1 µM ([23]; 1 µM i-CDK9): 100%; remaining binding at 10 µM ([23]; 10 µM i-CDK9): 98%; % Retention on Solid Support ([24]; 1 µM i-CDK9): 4.7%; % Retention on Solid Support ([24]; 10 µM i-CDK9): 100%; remaining binding at 1 µM ([25]; 1 µM i-CDK9): 44%; remaining binding at 10 µM ([25]; 10 µM i-CDK9): 23%; remaining binding at 1 µM ([26]; 1 µM i-CDK9): 73%; remaining binding at 10 µM ([26]; 10 µM i-CDK9): 100%; remaining binding at 1 µM ([27]; 1 µM i-CDK9): 100%; remaining binding at 10 µM ([27]; 10 µM i-CDK9): 23%; remaining binding at 1 µM ([28]; 1 µM i-CDK9): 93%; remaining binding at 10 µM ([28]; 10 µM i-CDK9): 96%; remaining binding at 1 µM ([29]; 1 µM i-CDK9): 100%; remaining binding at 10 µM ([29]; 10 µM i-CDK9): 20%; remaining binding at 1 µM ([30]; 1 µM i-CDK9): 1.3%; remaining binding at 10 µM ([30]; 10 µM i-CDK9): 0%
